Results reported in US20090275610A1, “TRICYCLIC OPIOID MODULATORS” (priority 2005, published 2009).
Where two headings read alike, the source gives them in different places.

Key:
[1] = target: T1, delta opioid receptor (Rattus norvegicus, UniProt P33533); assay: Rat brain delta opioid receptor binding assay; settings: rat forebrain membranes, [3H]DPDPE or [3H]naltrindole, 25° C., 2.5 h
T1 construct: the forebrains were homogenized in Tris buffer in a Teflon®-glass homogenizer; from tissue; host or cells: forebrain of male Wistar rats (particulate membrane preparation)
Procedure: Rat Brain Delta Opioid Receptor Binding Assay
(§1) Procedure: Male, Wistar rats (150-250 g, VAF, Charles River, Kingston, N.Y.) were killed by CO2, and their brains removed and placed immediately in ice cold Tris HCl buffer (50 mM, pH 7.4). The forebrains were separated from the remainder of the brain by a coronal transection, beginning dorsally at the colliculi and passing ventrally through the midbrain-pontine junction. After dissection, the forebrains were homogenized in Tris buffer in a Teflon®-glass homogenizer. The homogenate was diluted to a concentration of 1 g of forebrain tissue per 80 mL Tris and centrifuged at 39,000×g for 10 min. The pellet was resuspended in the same volume of Tris buffer containing 5 mM MgCl2 with several brief pulses from a Polytron homogenizer. This particulate preparation was used for the delta opioid binding assays.
(§2) Analysis: The data from the scintillation counter were used to calculate either the % inhibition compared to control binding (when only a single concentration of test compound was evaluated) or a Ki value (when a range of concentrations was tested). Percent inhibition was calculated as: [(total dpm−test compound dpm)/(total dpm−nonspecific dpm)]*100. Kd and Ki values were calculated using GraphPad PRISM data analysis program.

[2] = target: T2, mu opioid receptor (Rattus norvegicus, UniProt P33535); assay: Rat brain mu opioid receptor binding assay; settings: rat forebrain membranes, [3H]DAMGO, 25° C., 2.5 h
T2 construct: the forebrains were homogenized in Tris buffer in a Teflon®-glass homogenizer; from tissue; host or cells: forebrain of male Wistar rats (particulate membrane preparation)
Procedure: Rat Brain Mu Opioid Receptor Binding Assay
as §1
as §2, with “concentrations” for “concentrations was”

[3] = target: T3, delta opioid receptor (NG108-15 cell membranes) (Mus musculus, UniProt P32300); assay: [35S]GTPγS binding assay in NG108-15 cell membranes (delta opioid); assay type: biochemical; settings: delta GTPγS binding EC50 (nM)
T3 construct: NG108-15 cell membranes were purchased from Applied Cell Sciences (Rockville, Md.); host or cells: NG108-15 cell membranes (purchased)
Procedure: Functional Assay: [^35S]GTPγS Binding Assay in NG108-15 Cell Membranes (Delta Opioid)
Methods: NG108-15 cell membranes were purchased from Applied Cell Sciences (Rockville, Md.). A sample (8 mg/mL) of membrane protein suspended in 10 mM TRIS-HCl pH 7.2, 2 mM EDTA, 10% sucrose. Membranes were maintained at 4-8° C. A 1 mL volume of membranes was added into 10 mL cold binding assay buffer. The assay buffer contained 50 mM Tris, pH 7.6, 5 mM MgCl2, 100 mM NaCl, 1 mM DTT and 1 mM EGTA. The membrane suspension was homogenized twice with a Polytron, and centrifuged at 3000 rpm for 10 min. The supernatant was then centrifuged at 18,000 rpm for 20 min. Ten mL assay buffer was added into the pellet containing tube. The pellet and buffer were mixed with a Polytron.
Incubation procedure: The pellet membranes (75 μg/mL) were preincubated with SPA (10 mg/mL) at 25° C. for 45 min in the assay buffer. The SPA (5 mg/mL) coupled with membranes (37.5 μg/mL) was then incubated with 0.1 nM [^35S]GTPγS in the same Tris buffer containing 100 μM GDP in total volume of 200 μL. Increasing concentrations of receptor agonists were used to stimulate [^35S]-GTPγS binding. The basal binding was tested in the absence of agonists and non-specific binding was tested in the presence of 10 μM unlabeled GTPγS. The data were analyzed on a Packard Top Count.
% of Basal=(stimulated−non specific)*100/(basal−non specific).
EC50 values were calculated using GraphPad Prism.

[4] = rDOR (Ki, nM): Rat delta opioid receptor binding constant
[5] = rMOR (Ki, nM): Rat mu opioid receptor binding constant
[6] = read-out: rDOR (Ki, nM): Rat delta opioid receptor binding constant
[7] = read-out: rMOR (Ki, nM): Rat mu opioid receptor binding constant

T1 sequence (P33533 whole entry): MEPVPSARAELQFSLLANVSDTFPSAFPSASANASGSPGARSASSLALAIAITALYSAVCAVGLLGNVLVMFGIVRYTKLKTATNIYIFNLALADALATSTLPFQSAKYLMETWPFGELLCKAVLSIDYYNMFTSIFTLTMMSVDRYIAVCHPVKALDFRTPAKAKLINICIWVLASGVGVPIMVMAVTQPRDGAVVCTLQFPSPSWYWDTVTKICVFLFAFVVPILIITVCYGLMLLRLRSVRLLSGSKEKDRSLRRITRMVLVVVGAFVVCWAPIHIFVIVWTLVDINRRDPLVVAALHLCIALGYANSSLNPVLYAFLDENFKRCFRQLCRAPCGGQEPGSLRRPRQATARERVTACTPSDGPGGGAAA
T2 sequence (P33535 whole entry): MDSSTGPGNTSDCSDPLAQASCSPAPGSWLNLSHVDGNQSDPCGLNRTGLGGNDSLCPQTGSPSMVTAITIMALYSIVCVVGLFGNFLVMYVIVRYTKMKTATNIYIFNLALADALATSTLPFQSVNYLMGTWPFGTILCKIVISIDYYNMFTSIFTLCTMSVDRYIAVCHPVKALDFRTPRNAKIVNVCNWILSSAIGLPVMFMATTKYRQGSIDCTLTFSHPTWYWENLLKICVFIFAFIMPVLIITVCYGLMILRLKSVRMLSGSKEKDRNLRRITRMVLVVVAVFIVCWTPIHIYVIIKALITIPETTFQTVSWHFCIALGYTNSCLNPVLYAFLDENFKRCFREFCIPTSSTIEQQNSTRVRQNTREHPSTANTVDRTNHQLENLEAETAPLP
T3 sequence (P32300 whole entry): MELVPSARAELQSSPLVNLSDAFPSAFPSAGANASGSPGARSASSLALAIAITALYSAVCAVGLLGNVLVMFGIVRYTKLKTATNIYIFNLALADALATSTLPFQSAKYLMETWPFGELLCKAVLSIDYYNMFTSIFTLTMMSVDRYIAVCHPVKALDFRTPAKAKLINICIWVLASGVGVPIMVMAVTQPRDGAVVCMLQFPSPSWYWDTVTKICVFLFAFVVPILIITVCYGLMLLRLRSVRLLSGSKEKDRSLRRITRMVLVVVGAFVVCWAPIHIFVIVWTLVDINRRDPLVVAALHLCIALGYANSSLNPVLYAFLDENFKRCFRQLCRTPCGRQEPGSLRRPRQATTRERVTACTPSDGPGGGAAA

With `O=C(N1C2CCC1CC(=C1c3ccccc3Oc3c(O)cccc31)C2)C(F)(F)F` (single isomer, unassigned) [Cpd 5, 2,2,2-Trifluoro-1-[3-(4-hydroxy-xanthen-9-ylidene)-8-azabicyclo[3.2.1]oct-8-yl]-ethanone] as the compound, how does the Ki [1, 4] read?
Its Ki is 2110 nM.

What about the Ki [2, 5] of the same compound?
Its Ki is 5620 nM.

Which results are given for `O=C(N1C2CCC1CC(=C1c3ccccc3Oc3c(O)cccc31)C2)C(F)(F)F` (single isomer, unassigned) [Cpd 6, 2,2,2-Trifluoro-1-[3-(4-hydroxy-xanthen-9-ylidene)-8-azabicyclo[3.2.1]oct-8-yl]-ethanone]?
Ki [1, 4]: 8500 nM; Ki [2, 5]: > 10000 nM

What does the source list for `Oc1cccc2c1Oc1ccccc1C2=C1CC2CCC(C1)N2` (single isomer, unassigned) [Cpd 9, 9-(8-Azabicyclo[3.2.1]oct-3-ylidene)-9H-xanthen-4-ol]?
Ki [1, 4]: 68.2 nM; Ki [2, 5]: 63.6 nM

With `NC(=O)c1cccc2c1Oc1ccccc1C2=C1C[C@H]2CC[C@@H](C1)N2C(=O)C(F)(F)F` (single isomer, unassigned) [Cpd 36, (+)-9-[8-(2,2,2-Trifluoroacetyl)-8-azabicyclo[3.2.1]oct-3-ylidene]-9H-xanthene-4-carboxylic acid amide] as the compound, how does the Ki [1, 6] read?
The Ki was 1790 nM.

What about the Ki [2, 7] of the same compound?
The Ki was greater than 10000 nM.

`NC(=O)c1cccc2c1Oc1ccccc1C2=C1C[C@H]2CC[C@@H](C1)N2C(=O)C(F)(F)F` (single isomer, unassigned) [Cpd 38, (−)-9-[8-(2,2,2-Trifluoroacetyl)-8-azabicyclo[3.2.1]oct-3-ylidene]-9H-xanthene-4-carboxylic acid amide] was tested. Which Ki [1, 6] did it give?
The Ki was 6440 nM.

What about the Ki [2, 7] of the same compound?
The Ki was greater than 10000 nM.

Which results are given for `NC(=O)c1cccc2c1Oc1ccccc1C2=C1CC2CCC(C1)N2` (single isomer, unassigned) [Cpd 39, 9-(8-Azabicyclo[3.2.1]oct-3-ylidene)-9H-xanthene-4-carboxylic acid amide]?
Ki [1, 4]: 31.9 nM; Ki [2, 5]: 96.4 nM; EC50 [3]: 1240 nM

With `N=C(NO)c1cccc2c1Oc1ccccc1C2=C1CC2CCC(C1)N2` (single isomer, unassigned) [Cpd 42, 9-(8-Aza-bicyclo[3.2.1]oct-3-ylidene)-N-hydroxy-9H-xanthene-4-carboxamidine] as the compound, how does the Ki [1, 6] read?
Its Ki is 237 nM.

And the Ki [2, 5]?
Its Ki is 56.5 nM.

For `N=C(NO)c1cccc2c1Oc1ccccc1C2=C1CC2CCC(C1)N2` (single isomer, unassigned) [Cpd 43, 9-(8-Aza-bicyclo[3.2.1]oct-3-ylidene)-N-hydroxy-9H-xanthene-4-carboxamidine], which Ki [1, 6] is on record?
Its Ki is greater than 10000 nM.

And the Ki [2, 7]?
The Ki was greater than 10000 nM.

With `O=C(Nc1ccccc1)c1cccc2c1Oc1ccccc1C2=C1CC2CCC(C1)N2` (single isomer, unassigned) [Cpd 47, 9-(8-Azabicyclo[3.2.1]oct-3-ylidene)-9H-xanthene-4-carboxylic acid phenylamide] as the compound, how does the Ki [1, 4] read?
The Ki was 250 nM.

And the Ki [2, 5]?
The Ki was 293 nM.

Which results are given for `Oc1cccc2c1Oc1ccccc1C2=C1CC2CCC(C1)N2Cc1cccnc1` (single isomer, unassigned) [Cpd 49, 9-(8-Pyridin-3-ylmethyl-8-azabicyclo[3.2.1]oct-3-ylidene)-9H-xanthen-4-ol]?
Ki [1, 4]: 62.6 nM; Ki [2, 5]: 443 nM

`CN1C2CCC1CC(=C1c3ccccc3Oc3c(O)cccc31)C2` (single isomer, unassigned) [Cpd 52, 9-(8-Methyl-8-azabicyclo[3.2.1]oct-3-ylidene)-9H-xanthen-4-ol] was tested. Which Ki [1, 4] did it give?
The Ki was 323 nM.

What about the Ki [2, 5] of the same compound?
Its Ki is 1320 nM.

For `O=C(NCc1ccccc1)c1cccc2c1Oc1ccccc1C2=C1CC2CCC(C1)N2` (single isomer, unassigned) [Cpd 53, 9-(8-Azabicyclo[3.2.1]oct-3-ylidene)-9H-xanthene-4-carboxylic acid benzylamide], which Ki [1, 4] is on record?
The Ki was 1130 nM.

What about the Ki [2, 5] of the same compound?
The Ki was 2030 nM.

How did the Ki [1, 4] turn out when `O=C(NCCc1ccccc1)c1cccc2c1Oc1ccccc1C2=C1CC2CCC(C1)N2` (single isomer, unassigned) [Cpd 55, 9-(8-Azabicyclo[3.2.1]oct-3-ylidene)-9H-xanthene-4-carboxylic acid phenethylamide] was run?
Its Ki is 100 nM.

What about the Ki [2, 5] of the same compound?
The Ki was 200 nM.

With `Oc1cccc2c1Oc1ccccc1C2=C1CC2CCC(C1)N2Cc1ccoc1` (single isomer, unassigned) [Cpd 57, 9-(8-Furan-3-ylmethyl-8-azabicyclo[3.2.1]oct-3-ylidene)-9H-xanthen-4-ol] as the compound, how does the Ki [1, 4] read?
The Ki was 246 nM.

What about the Ki [2, 5] of the same compound?
Its Ki is 36.5 nM.

With `Oc1cccc2c1Oc1ccccc1C2=C1CC2CCC(C1)N2Cc1ccccn1` (single isomer, unassigned) [Cpd 59, 9-(8-Pyridin-2-ylmethyl-8-azabicyclo[3.2.1]oct-3-ylidene)-9H-xanthen-4-ol] as the compound, how does the Ki [1, 4] read?
The Ki was 0.07 nM.

And the Ki [2, 5]?
Its Ki is 0.39 nM.

What does the source list for `Oc1cccc2c1Oc1ccccc1C2=C1CC2CCC(C1)N2Cc1ccccn1` (single isomer, unassigned) [Cpd 60, 9-(8-Pyridin-2-ylmethyl-8-azabicyclo[3.2.1]oct-3-ylidene)-9H-xanthen-4-ol]?
Ki [1, 4]: 0.01 nM; Ki [2, 5]: 0.01 nM

For `COc1cccc2c1Oc1ccccc1C2=C1CC2CCC(C1)N2` [Cpd 1], which Ki [1, 6] is on record?
The Ki was 3800 nM.

And the Ki [2, 7]?
The Ki was 1790 nM.

What does the source list for `COC(=O)c1cccc2c1Oc1ccccc1C2=C1CC2CCC(C1)N2C(=O)C(F)(F)F` [Cpd 7, 9-[8-(2,2,2-Trifluoroacetyl)-8-azabicyclo[3.2.1]oct-3-ylidene]-9H-xanthene-4-carboxylic acid methyl ester]?
Ki [1, 4]: > 10000 nM; Ki [2, 5]: > 10000 nM

For `CN(C)C(=O)c1cccc2c1Oc1ccccc1C2=C1CC2CCC(C1)N2` [Cpd 11, 9-(8-Azabicyclo[3.2.1]oct-3-ylidene)-9H-xanthene-4-carboxylic acid dimethylamide], which Ki [1, 4] is on record?
The Ki was 3110 nM.

And the Ki [2, 5]?
The Ki was 471 nM.

What does the source list for `CN(C)CCNC(=O)c1cccc2c1Oc1ccccc1C2=C1CC2CCC(C1)N2` [Cpd 15, 9-(8-Azabicyclo[3.2.1]oct-3-ylidene)-9H-xanthene-4-carboxylic acid (2-dimethylaminoethyl)-amide]?
Ki [1, 4]: 1420 nM; Ki [2, 5]: 336 nM

Which results are given for `CN1C2CCCC1CC(=C1c3ccccc3Oc3c(O)cccc31)C2` [Cpd 17, 9-(9-Methyl-9-azabicyclo[3.3.1]non-3-ylidene)-9H-xanthen-4-ol]?
Ki [1, 4]: 132 nM; Ki [2, 5]: 221 nM

Which results are given for `CN1CCC(=C2c3ccccc3Oc3c(O)cccc32)CC1` [Cpd 18, 9-(1-Methyl-piperidin-4-ylidene)-9H-xanthen-4-ol]?
Ki [1, 4]: 330 nM; Ki [2, 5]: 4610 nM

For `Oc1cccc2c1Oc1ccccc1C2=C1CC2CCC(C1)N2Cc1csc2ccccc12` [Cpd 33], which Ki [1, 6] is on record?
Its Ki is 137 nM.

What about the Ki [2, 7] of the same compound?
The Ki was 168 nM.

With `Oc1cccc2c1Oc1ccccc1C2=C1CC2CCC(C1)N2Cc1cccc2cnccc12` [Cpd 35] as the compound, how does the Ki [1, 6] read?
The Ki was 180 nM.

What about the Ki [2, 7] of the same compound?
The Ki was 286 nM.

`Clc1ccc(Nc2cccc3c2Oc2ccccc2C3=C2CC3CCC(C2)N3)cc1` [Cpd 61, [9-(8-Azabicyclo[3.2.1]oct-3-ylidene)-9H-xanthen-4-yl]-(4-chlorophenyl)-amine] was tested. Which Ki [1, 4] did it give?
The Ki was 395 nM.

And the Ki [2, 5]?
Its Ki is 3160 nM.

For `c1cncc(Nc2cccc3c2Oc2ccccc2C3=C2CC3CCC(C2)N3)c1` [Cpd 62, [9-(8-Azabicyclo[3.2.1]oct-3-ylidene)-9H-xanthen-4-yl]-pyridin-3-yl-amine], which Ki [1, 4] is on record?
The Ki was 108 nM.

And the Ki [2, 5]?
The Ki was 159 nM.

With `c1ccc(Nc2cccc3c2Oc2ccccc2C3=C2CC3CCC(C2)N3)cc1` [Cpd 64, [9-(8-Azabicyclo[3.2.1]oct-3-ylidene)-9H-xanthen-4-yl]-phenylamine] as the compound, how does the Ki [1, 4] read?
Its Ki is 862 nM.

And the Ki [2, 5]?
The Ki was 2420 nM.
